The text below walks through data of patent US20130190376A1, “METHODS OF USE OF SMALL MOLECULE MODULATORS OF HEPATOCYTE GROWTH FACTOR (SCATTER FACTOR) ACTIVITY” (priority 2010, published 2013).

The subject of one assay is HUVECs. Put plainly: Nitric oxide production in endothelial cells (DAF 2-DA fluorescence). In kind it is cell-based, human. Conditions: HUVECs incubated 24 hours. How it is done:
c. HGF and compounds of the invention stimulate nitric oxide production in endothelial cells. HUVECs are incubated with either vehicle, HGF/SF, instant compounds, or SNAP for 24 hours, loaded with the nitric oxide-sensitive fluorescence indicator DAF 2-DA and imaged under a laser scanning confocal microscope.

In a further assay the test system is MDCK cells. Put plainly: Anti-apoptotic activity in cultured cell lines (adriamycin). In kind it is cell-based. Conditions: pretreatment; HUVEC and MDCK cell lines. The source says:
a. HGF/SF and instant compounds have significant anti-apoptotic activity in cultured cell lines.

In another assay the test system is LX2 cells. In words: Antifibrotic activity in hepatic stellate cells. In kind it is cell-based, human. Conditions: serum starved (activated) LX2 cells. The source says: a. Antifibrotic Activity in Hepatic Stellate Cells.

As for `CC(=O)N[C@@H](C(=O)O)C(C)(C)SN=O` (racemic) [SNAP, reference compound], the “nitric oxide production (DAF 2-DA fluorescence)” value with HUVECs is “significant increase in fluorescence”.

For “HGF/SF: Scatter factor, also known as hepatocyte growth factor; pleiotropic growth factor, heparin-binding heterodimeric protein”, the “nitric oxide production (DAF 2-DA fluorescence)” value in the assay on HUVECs is “significant increase in fluorescence”. For the same compound, in the assay on MDCK cells, the cell viability result is listed as “significantly improves the cell viability”. In the assay on LX2 cells, the “collagen I mRNA expression” value is reported as “decrease in collagen I mRNA expression”.
